Results published in PMC12662848 (Cancer Chemotherapy and Pharmacology, 2025).
Read-outs that look alike come from different tables or passages of the source.

Columns and labels:
[1] = Venetoclax plasma PK in combination with enzalutamide (LC–MS/MS, non-compartmental); type: in vivo, human; conditions: for half-life: read-out: D1 t½ (converted); for AUC(0-inf): read-out: D1 AUC0-inf; for Tmax: read-out: D1 Tmax
Procedure: A volume of 50 μL of the standard, QC, or sample plasma was pipetted into a microfuge tube and 10 μL of internal standard (IS; 500 ng/mL ^2H7-venetoclax) was added to each. Next, 200 μL of acetonitrile was added followed by vortexing for 30 s. Samples were centrifuged at 17,200 × g at room temperature for 10 min. Supernatants were transferred to autosampler vials, followed by injection of 5 μL into the LC–MS/MS system. The LC system consisted of an Exion autosampler with binary pump (Sciex, Framingham, MA, USA), Synergi Polar-RP C18 (4 µm, 2.1 × 50 mm) column kept at 30 °C. The autosampler temperature was also kept at 10 °C. Mobile phase solvent A consisted of 0.1% formic acid in water and mobile phase solvent B consisted of 0.1% formic acid in acetonitrile, mixed at 60% B. A. flow rate of 0.4 mL/min between 0–3 min and 1 mL/min from 3–5 min. Retention time of venetoclax was 1.7 min. MS detection was carried out using an ABI SCIEX (Concord, ON, Canada) 4500 tandem mass spectrometer with electrospray ionization in positive multiple reaction monitoring (MRM) mode, monitoring m/z transitions: 868.40 > 836.3 for venetoclax and 875.4 > 643.3 for venetoclax IS. QC based accuracies (N = 6, each of 3 days) were 100.9–106.2%. The intra- and inter-assay precisions were < 10.6% and < 2.4%.

[2] = tested on: BCL-2; experiment: Western blotting of BCL-2α/β proteins and cleaved caspase-3 in healthy donor PBMCs treated ex vivo with ABT-199; type: cell-based, human; conditions: 1 µM
Procedure: PBMCs from the trial patients or healthy donors were isolated from whole blood using Lymphoprep™ ([…] Technologies, Cat. #07801) following the manufacturer’s protocol. Whole blood was diluted 1:1 with room temperature phosphate-buffered saline (PBS) containing 2% fetal bovine serum (FBS) and carefully layered over an equal volume of Lymphoprep™ in a 50 mL conical tube. Samples were centrifuged at 800 × g for 20–30 min at room temperature with the brake off. The PBMC layer formed at the interface between the plasma and Lymphoprep™ was gently collected and transferred to a new tube. Cells were washed once with PBS containing 2% FBS by centrifugation at 300 × g for 10 min, and the final pellet was resuspended in DMEM media for downstream culture.
ABT-199 (S8048, Selleck Chemicals) was dissolved in DMSO. Healthy donor PBMCs were seeded at a density of 2 × 10⁶ cells per 60 mm dish and treated with 1 μM of ABT-199 for various time intervals (i.e., 2, 4, 8, and 24 h). At the end of each time point, PBMCs were harvested for protein and RNA extraction (below). All treatments were performed in 3–6 biological replicates and control samples were treated with vehicle (DMSO) only.
PBMC samples from above were harvested using 0.1% trypsin–EDTA solution (Gibco) and centrifuged (1,000 rcf, 4 min, 4 °C), washed with DPBS (Gibco), centrifuged again (1,000 rcf, 4 min, 4 °C), and the pellet was lysed in denaturing buffer containing Halt protease inhibitor cocktail (Thermo Fisher Scientific; Cat# SD-001/SN-002) for 15 min on ice. After centrifugation (15,000 rcf, 15 min, 4 °C), an aliquot of the supernatant was taken to determine the protein concentration using a BCA Protein Assay Kit (Thermo Fisher Scientific). Protein samples were mixed in NuPAGE LDS buffer and 1 × reducing agent (Invitrogen) and denatured at 95 °C for 5 min. Proteins separated by sodium dodecyl sulfate–polyacrylamide gel electrophoresis (SDS-PAGE) were transferred to a nitrocellulose membrane at 110 V for 110 min in a wet tank transfer system (Surelock system, Invitrogen). […]

[3] = tested on: AR−/lo LAPC9-CRPC; set-up: method as in PMID 30190514; conditions: single agent; cited from earlier work
[4] = cited from earlier work
[5] = Total (N = 10), venetoclax 400–800 mg with enzalutamide 160 mg/d, geometric mean (geometric SD)
[6] = Total (N = 10), venetoclax 400–800 mg with enzalutamide 160 mg/d, geometric mean (geometric SD), listed as Venetoclax
[7] = male, human, plasma, oral, 400 mg
[8] = male, human, plasma, oral, 600 mg
[9] = male, human, plasma, oral, 800 mg
[10] = venetoclax 400 mg (N = 3) with enzalutamide 160 mg/d, plasma, geometric mean (geometric SD)
[11] = venetoclax 600 mg (N = 3) with enzalutamide 160 mg/d, plasma, geometric mean (geometric SD)
[12] = venetoclax 800 mg (N = 4) with enzalutamide 160 mg/d, plasma, geometric mean (geometric SD)

CC1(C)CCC(CN2CCN(c3ccc(C(=O)NS(=O)(=O)c4ccc(NCC5CCOCC5)c([N+](=O)[O-])c4)c(Oc4cnc5[nH]ccc5c4)c3)CC2)=C(c2ccc(Cl)cc2)C1 [venetoclax]
D1 Cl/F [1, 5]: approximately 42 L/h
D1 Cmax/Dose [1, 5]: 1.54 (1.54) µg/L/mg
D1 Tmax [1, 5]: 6.0 (1.3) h
D15 Cmin [1, 5]: 188 (2.17) µg/L
D1 Cl/F [1, 6]: 42.1 (1.76) L/h
D1 t½ [1, 6]: 8.9 (1.6) h
Ratio D29/D1 (day 29 AUC0–24 over day 1 AUC0-inf) ([1]; Total, venetoclax 400–800 mg with enzalutamide 160 mg/d, geometric mean (geometric SD)): 0.77 (2.90)
Variability of the ratio of day 29 AUC0–24 over day 1 AUC0-inf ([1]; corresponding to geometric SD 2.90): 190 %CV
AUC(0-t) ([1]; human, plasma, oral, 800 mg, venetoclax 800 mg with enzalutamide 160 mg/d, plasma, N = 1 on D29, read-out: D29 AUC0-24): 8870 ng·h/mL
Cmax ([1]; human, plasma, oral, 800 mg, venetoclax 800 mg with enzalutamide 160 mg/d, plasma, N = 1 on D29, read-out: D29 Cmax): 1000 ng/mL
Increase in venetoclax apparent clearance ([1]; in combination with enzalutamide, versus previously reported values): 2–threefold
clearance ([1]; male, human, plasma, oral): ~700 mL/min
AUC(0-t) ([1]; male, human, plasma, oral, 400 mg, venetoclax 400 mg (N = 3) with enzalutamide 160 mg/d, plasma, geometric mean (geometric SD), read-out: D1 AUC0-last): 8020 ng·h/mL
Cmax ([1]; male, human, plasma, oral, 400 mg, venetoclax 400 mg (N = 3) with enzalutamide 160 mg/d, plasma, geometric mean (geometric SD), read-out: D1 Cmax): 658 ng/mL
half-life ([1]; male, human, plasma, oral, 400 mg, venetoclax 400 mg (N = 3) with enzalutamide 160 mg/d, plasma, geometric mean (geometric SD)): 11 h
AUC(0-t) ([1]; male, human, plasma, oral, 400 mg, venetoclax 400 mg (N = 3) with enzalutamide 160 mg/d, plasma, geometric mean (geometric SD), read-out: D29 AUC0-24): 10500 ng·h/mL
Cmax ([1]; male, human, plasma, oral, 400 mg, venetoclax 400 mg (N = 3) with enzalutamide 160 mg/d, plasma, geometric mean (geometric SD), read-out: D29 Cmax): 968 ng/mL
AUC(0-inf) [1, 7]: 11100 ng·h/mL
Tmax [1, 7]: 5.2 h
AUC(0-t) ([1]; male, human, plasma, oral, 600 mg, venetoclax 600 mg (N = 3) with enzalutamide 160 mg/d, plasma, geometric mean (geometric SD), read-out: D1 AUC0-last): 12200 ng·h/mL
Cmax ([1]; male, human, plasma, oral, 600 mg, venetoclax 600 mg (N = 3) with enzalutamide 160 mg/d, plasma, geometric mean (geometric SD), read-out: D1 Cmax): 1170 ng/mL
half-life ([1]; male, human, plasma, oral, 600 mg, venetoclax 600 mg (N = 3) with enzalutamide 160 mg/d, plasma, geometric mean (geometric SD)): 6.6 h
AUC(0-t) ([1]; male, human, plasma, oral, 600 mg, venetoclax 600 mg (N = 3) with enzalutamide 160 mg/d, plasma, geometric mean (geometric SD), read-out: D29 AUC0-24): 9110 ng·h/mL
Cmax ([1]; male, human, plasma, oral, 600 mg, venetoclax 600 mg (N = 3) with enzalutamide 160 mg/d, plasma, geometric mean (geometric SD), read-out: D29 Cmax): 554 ng/mL
AUC(0-inf) [1, 8]: 14600 ng·h/mL
Tmax [1, 8]: 5.6 h
AUC(0-t) ([1]; male, human, plasma, oral, 800 mg, venetoclax 800 mg (N = 4) with enzalutamide 160 mg/d, plasma, geometric mean (geometric SD), read-out: D1 AUC0-last): 8760 ng·h/mL
Cmax ([1]; male, human, plasma, oral, 800 mg, venetoclax 800 mg (N = 4) with enzalutamide 160 mg/d, plasma, geometric mean (geometric SD), read-out: D1 Cmax): 979 ng/mL
half-life ([1]; male, human, plasma, oral, 800 mg, venetoclax 800 mg (N = 4) with enzalutamide 160 mg/d, plasma, geometric mean (geometric SD)): 9.4 h
AUC(0-inf) [1, 9]: 16600 ng·h/mL
Tmax [1, 9]: 6.9 h
Cmax ([1]; male, human, plasma, oral, Total (N = 10), venetoclax 400–800 mg with enzalutamide 160 mg/d, geometric mean (geometric SD), read-out: D1 Cmax): 917 ng/mL
half-life ([1]; male, human, plasma, oral, Total (N = 10), venetoclax 400–800 mg with enzalutamide 160 mg/d, geometric mean (geometric SD)): ~9 h
Cmax ([1]; male, human, plasma, oral, Total, venetoclax 400–800 mg with enzalutamide 160 mg/d, N = 3, 3, and 1 on D29, geometric mean (geometric SD), read-out: D29 Cmax): 765 ng/mL
Ratio D29/D1 (day 29 AUC0–24 over day 1 AUC0-inf) ([1]; venetoclax 400 mg (N = 3) with enzalutamide 160 mg/d, geometric mean (geometric SD)): 0.95 (1.99)
D1 Cl/F [1, 10]: 36.2 (1.27) L/h
D1 Cmax/Dose [1, 10]: 1.64 (1.29) µg/L/mg
D15 Cmin [1, 10]: 180 (1.72) µg/L
Ratio D29/D1 (day 29 AUC0–24 over day 1 AUC0-inf) ([1]; venetoclax 600 mg (N = 3) with enzalutamide 160 mg/d, geometric mean (geometric SD)): 0.62 (5.32)
D1 Cl/F [1, 11]: 41.2 (1.65) L/h
D1 Cmax/Dose [1, 11]: 1.95 (1.79) µg/L/mg
D15 Cmin [1, 11]: 214 (2.30) µg/L
D1 Cl/F [1, 12]: 48.1 (2.31) L/h
D1 Cmax/Dose [1, 12]: 1.22 (1.50) µg/L/mg
D15 Cmin [1, 12]: 177 (2.89) µg/L
Ratio D29/D1 (day 29 AUC0–24 over day 1 AUC0-inf) ([1]; venetoclax 800 mg with enzalutamide 160 mg/d, N = 1 on D29): 0.79
Interpatient variability in Cmin ([1]; venetoclax, approximated from geometric SD (2.17–1)*100): ~117 %CV
Intrapatient variability in Cmin ([1]; venetoclax, from day 8 through 57, across doses): 51 %CV
Apoptosis: active (cleaved) caspase-3 ([2]; PBMCs from all 3 healthy donors): increased active (cleaved) caspase-3
BCL-2β protein levels and BCL-2β/BCL-2α ratios ([2]; all 3 healthy donor PBMCs, from 2 h up to 8 h): upregulated BCL-2β protein levels and increased the BCL-2β/BCL-2α ratios
BCL-2α/BCL-2β proteins ([2]; healthy donor PBMCs, ≥ 24 h post treatment): lost and undetectable
Growth of AR−/lo LAPC9-CRPC [3]: greatly inhibited
Absolute bioavailability [4]: ~ 5%
Less than expected exposure when doubling dose ([4]; from 400 to 800 mg, population PK report): 12%
Cmax ([4]; previous values, 800 mg dose): 3740 ng/mL
Cmin ([4]; previous values, 800 mg dose): 1430 ng/mL
Venetoclax half-life ([4]; previously reported in AML patients): 14 to 26 h
Venetoclax clearance ([4]; previously reported): 413 L/day
